{"source": "the kinase profiling compilation of Christmann-Franck et al. (2016)", "key": {"BMX (human)": {"target": "BMX (human) (UniProt P51813)", "test": "Caliper, Mobility shift assay off-chip"}, "CDC42BPA (human)": {"target": "CDC42BPA (human) (UniProt Q5VT25)", "test": "Caliper, Mobility shift assay off-chip"}, "CSF1R (human)": {"target": "CSF1R (human) (UniProt P07333)", "test": "Caliper, Mobility shift assay off-chip"}, "EPHB3 (human)": {"target": "EPHB3 (human) (UniProt P54753)", "sequence (P54753 whole entry, looked up)": "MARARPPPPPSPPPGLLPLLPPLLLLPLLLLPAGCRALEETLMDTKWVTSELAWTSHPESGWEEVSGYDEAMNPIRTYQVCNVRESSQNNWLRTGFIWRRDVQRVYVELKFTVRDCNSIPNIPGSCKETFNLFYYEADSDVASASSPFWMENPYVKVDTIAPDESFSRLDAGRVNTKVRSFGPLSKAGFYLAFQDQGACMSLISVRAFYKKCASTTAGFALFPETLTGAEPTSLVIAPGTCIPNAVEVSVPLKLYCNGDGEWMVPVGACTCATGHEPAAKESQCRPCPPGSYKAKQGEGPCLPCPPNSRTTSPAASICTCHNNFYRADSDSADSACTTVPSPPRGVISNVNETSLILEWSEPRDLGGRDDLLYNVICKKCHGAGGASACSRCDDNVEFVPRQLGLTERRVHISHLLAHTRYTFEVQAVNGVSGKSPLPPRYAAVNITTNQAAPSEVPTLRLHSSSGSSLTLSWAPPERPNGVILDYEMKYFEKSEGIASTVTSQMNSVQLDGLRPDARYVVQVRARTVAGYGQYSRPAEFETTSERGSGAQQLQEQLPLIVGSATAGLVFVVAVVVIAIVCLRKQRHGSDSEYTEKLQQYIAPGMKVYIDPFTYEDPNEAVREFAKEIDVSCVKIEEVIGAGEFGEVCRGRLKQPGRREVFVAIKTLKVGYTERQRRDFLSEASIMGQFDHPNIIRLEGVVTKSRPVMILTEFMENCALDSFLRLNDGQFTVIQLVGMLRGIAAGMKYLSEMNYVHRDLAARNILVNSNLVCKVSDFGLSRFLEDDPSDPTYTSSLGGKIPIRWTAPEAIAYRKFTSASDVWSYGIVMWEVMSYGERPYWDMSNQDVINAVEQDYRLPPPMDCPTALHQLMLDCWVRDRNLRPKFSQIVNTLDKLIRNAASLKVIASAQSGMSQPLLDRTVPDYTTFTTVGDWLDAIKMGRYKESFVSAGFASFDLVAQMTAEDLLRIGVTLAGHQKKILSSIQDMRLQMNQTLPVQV", "test": "Caliper, Mobility shift assay off-chip"}, "HIPK2 (human)": {"target": "HIPK2 (human) (UniProt Q9H2X6)", "test": "Caliper, Mobility shift assay off-chip"}, "KIT (human)": {"target": "KIT (human) (UniProt P10721)", "test": "Caliper, Mobility shift assay off-chip"}, "MARK1 (human)": {"target": "MARK1 (human) (UniProt Q9P0L2)", "test": "Caliper, Mobility shift assay off-chip"}, "MET (human)": {"target": "MET (human) (UniProt P08581)", "test": "Caliper, Mobility shift assay off-chip"}, "YES1 (human)": {"target": "YES1 (human) (UniProt P07947)", "test": "Caliper, Mobility shift assay off-chip"}, "BMPR1A (human)": {"target": "BMPR1A (human) (UniProt P36894)", "test": "ELISA"}, "BRAF (human)": {"target": "BRAF (human) (UniProt P15056)", "test": "ELISA"}, "LIMK1 (human)": {"target": "LIMK1 (human) (UniProt P53667)", "test": "ELISA"}, "MAP2K1 (human)": {"target": "MAP2K1 (human) (UniProt Q02750)", "test": "ELISA", "conditions": "compound 0.2 µM"}, "MAP2K2 (human)": {"target": "MAP2K2 (human) (UniProt P36507)", "sequence (P36507 whole entry, looked up)": "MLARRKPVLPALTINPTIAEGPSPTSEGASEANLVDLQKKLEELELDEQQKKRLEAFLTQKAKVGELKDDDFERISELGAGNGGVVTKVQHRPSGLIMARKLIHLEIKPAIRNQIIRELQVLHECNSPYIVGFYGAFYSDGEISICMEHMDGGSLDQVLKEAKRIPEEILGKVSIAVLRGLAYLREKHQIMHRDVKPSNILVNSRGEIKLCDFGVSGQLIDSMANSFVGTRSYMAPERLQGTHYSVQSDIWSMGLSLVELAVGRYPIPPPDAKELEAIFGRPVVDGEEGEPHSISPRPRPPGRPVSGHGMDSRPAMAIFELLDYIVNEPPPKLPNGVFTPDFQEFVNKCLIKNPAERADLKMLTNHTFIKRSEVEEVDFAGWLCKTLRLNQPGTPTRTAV", "test": "ELISA"}, "MAP2K3 (human)": {"target": "MAP2K3 (human) (UniProt P46734)", "test": "ELISA", "conditions": "compound 0.2 µM"}, "MAP2K4 (human)": {"target": "MAP2K4 (human) (UniProt P45985)", "test": "ELISA"}, "MAP2K5 (human)": {"target": "MAP2K5 (human) (UniProt Q13163)", "sequence (Q13163 whole entry, looked up)": "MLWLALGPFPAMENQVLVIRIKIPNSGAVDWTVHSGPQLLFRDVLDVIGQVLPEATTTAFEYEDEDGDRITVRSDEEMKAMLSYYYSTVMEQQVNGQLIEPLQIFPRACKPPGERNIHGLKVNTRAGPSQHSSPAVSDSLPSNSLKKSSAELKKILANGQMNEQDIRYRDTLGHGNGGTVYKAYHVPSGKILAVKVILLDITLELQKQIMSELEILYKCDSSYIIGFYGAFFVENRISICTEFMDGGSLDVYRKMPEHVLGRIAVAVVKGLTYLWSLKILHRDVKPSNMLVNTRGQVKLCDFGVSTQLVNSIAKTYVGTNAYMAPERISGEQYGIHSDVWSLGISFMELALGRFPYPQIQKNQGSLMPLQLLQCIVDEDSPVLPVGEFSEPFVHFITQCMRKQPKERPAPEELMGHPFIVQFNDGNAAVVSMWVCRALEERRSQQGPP", "test": "ELISA"}, "MAP2K6 (human)": {"target": "MAP2K6 (human) (UniProt P52564)", "test": "ELISA"}, "MAP2K7 (human)": {"target": "MAP2K7 (human) (UniProt O14733)", "sequence (O14733 whole entry, looked up)": "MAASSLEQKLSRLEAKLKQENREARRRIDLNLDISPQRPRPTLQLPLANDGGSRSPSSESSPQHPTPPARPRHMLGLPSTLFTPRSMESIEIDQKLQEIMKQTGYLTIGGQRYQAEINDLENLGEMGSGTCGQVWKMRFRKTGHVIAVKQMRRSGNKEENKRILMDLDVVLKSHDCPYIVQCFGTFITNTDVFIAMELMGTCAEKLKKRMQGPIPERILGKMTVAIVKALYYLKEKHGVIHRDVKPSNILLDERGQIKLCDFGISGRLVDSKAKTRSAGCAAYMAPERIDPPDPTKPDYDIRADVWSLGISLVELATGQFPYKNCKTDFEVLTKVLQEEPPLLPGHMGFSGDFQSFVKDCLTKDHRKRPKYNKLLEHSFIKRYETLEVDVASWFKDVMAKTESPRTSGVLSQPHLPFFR", "test": "ELISA"}, "MAP3K1 (human)": {"target": "MAP3K1 (human) (UniProt Q13233)", "test": "ELISA"}, "MAP3K10 (human)": {"target": "MAP3K10 (human) (UniProt Q02779)", "sequence (Q02779 whole entry, looked up)": "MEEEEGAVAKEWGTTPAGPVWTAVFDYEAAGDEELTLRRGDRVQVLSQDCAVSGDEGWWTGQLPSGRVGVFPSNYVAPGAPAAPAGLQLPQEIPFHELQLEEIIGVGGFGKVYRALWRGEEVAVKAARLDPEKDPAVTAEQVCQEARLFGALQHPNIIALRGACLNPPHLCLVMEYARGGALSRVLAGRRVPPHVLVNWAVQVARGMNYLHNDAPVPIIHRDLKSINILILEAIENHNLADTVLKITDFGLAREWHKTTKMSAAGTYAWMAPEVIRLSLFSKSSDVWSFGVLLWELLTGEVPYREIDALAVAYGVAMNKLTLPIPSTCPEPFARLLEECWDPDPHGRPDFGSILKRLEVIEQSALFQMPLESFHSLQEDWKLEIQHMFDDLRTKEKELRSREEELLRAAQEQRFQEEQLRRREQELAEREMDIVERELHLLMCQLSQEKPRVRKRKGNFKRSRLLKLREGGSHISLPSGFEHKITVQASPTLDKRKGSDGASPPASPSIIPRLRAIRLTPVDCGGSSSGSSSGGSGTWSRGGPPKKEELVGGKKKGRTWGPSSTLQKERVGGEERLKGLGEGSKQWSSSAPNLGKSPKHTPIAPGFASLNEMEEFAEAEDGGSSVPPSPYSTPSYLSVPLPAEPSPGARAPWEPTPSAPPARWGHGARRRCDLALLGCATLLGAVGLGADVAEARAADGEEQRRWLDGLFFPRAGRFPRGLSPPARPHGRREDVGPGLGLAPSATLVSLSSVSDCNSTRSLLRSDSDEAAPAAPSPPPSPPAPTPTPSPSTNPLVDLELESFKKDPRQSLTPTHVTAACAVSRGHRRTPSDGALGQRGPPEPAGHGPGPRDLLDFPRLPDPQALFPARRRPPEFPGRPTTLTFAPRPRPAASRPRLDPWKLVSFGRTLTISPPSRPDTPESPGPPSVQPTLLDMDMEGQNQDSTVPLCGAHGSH", "test": "ELISA"}, "MAP3K11 (human)": {"target": "MAP3K11 (human) (UniProt Q16584)", "test": "ELISA"}, "MAP3K12 (human)": {"target": "MAP3K12 (human) (UniProt Q12852)", "test": "ELISA"}, "MAP3K2 (human)": {"target": "MAP3K2 (human) (UniProt Q9Y2U5)", "test": "ELISA"}, "MAP3K3 (human)": {"target": "MAP3K3 (human) (UniProt Q99759)", "test": "ELISA"}, "MAP3K4 (human)": {"target": "MAP3K4 (human) (UniProt Q9Y6R4)", "test": "ELISA"}, "MAP3K5 (human)": {"target": "MAP3K5 (human) (UniProt Q99683)", "test": "ELISA"}, "MAP3K8 (human)": {"target": "MAP3K8 (human) (UniProt P41279)", "test": "ELISA"}, "MOS (human)": {"target": "MOS (human) (UniProt P00540)", "test": "ELISA"}, "PLK4 (human)": {"target": "PLK4 (human) (UniProt O00444)", "sequence (O00444 whole entry, looked up)": "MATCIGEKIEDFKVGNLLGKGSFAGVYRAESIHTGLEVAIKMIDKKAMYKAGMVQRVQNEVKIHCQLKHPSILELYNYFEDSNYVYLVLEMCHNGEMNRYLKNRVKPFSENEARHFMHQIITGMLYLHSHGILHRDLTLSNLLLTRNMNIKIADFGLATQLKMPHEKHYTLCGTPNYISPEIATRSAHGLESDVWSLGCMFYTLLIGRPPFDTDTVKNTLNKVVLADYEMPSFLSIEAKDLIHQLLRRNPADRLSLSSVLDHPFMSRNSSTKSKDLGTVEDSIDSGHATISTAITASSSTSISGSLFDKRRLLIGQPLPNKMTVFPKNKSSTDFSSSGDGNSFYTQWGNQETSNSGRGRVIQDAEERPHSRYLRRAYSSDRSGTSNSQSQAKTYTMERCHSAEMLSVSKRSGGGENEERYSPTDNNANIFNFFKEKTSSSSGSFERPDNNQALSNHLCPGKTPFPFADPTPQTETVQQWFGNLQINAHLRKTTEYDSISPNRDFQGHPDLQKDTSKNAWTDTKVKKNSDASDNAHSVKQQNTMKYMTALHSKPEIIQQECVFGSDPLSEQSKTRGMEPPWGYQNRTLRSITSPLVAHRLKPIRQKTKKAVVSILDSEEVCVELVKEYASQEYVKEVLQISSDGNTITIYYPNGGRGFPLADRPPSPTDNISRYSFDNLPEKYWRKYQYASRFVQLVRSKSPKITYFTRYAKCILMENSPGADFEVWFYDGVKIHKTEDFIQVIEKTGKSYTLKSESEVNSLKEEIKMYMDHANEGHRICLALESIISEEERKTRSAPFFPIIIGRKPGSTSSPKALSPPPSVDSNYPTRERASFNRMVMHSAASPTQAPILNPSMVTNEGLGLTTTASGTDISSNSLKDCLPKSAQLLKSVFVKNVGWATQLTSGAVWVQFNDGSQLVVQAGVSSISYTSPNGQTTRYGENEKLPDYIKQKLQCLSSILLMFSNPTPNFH", "test": "ELISA"}, "RAF1 (human)": {"target": "RAF1 (human) (UniProt P04049)", "sequence (P04049 whole entry, looked up)": "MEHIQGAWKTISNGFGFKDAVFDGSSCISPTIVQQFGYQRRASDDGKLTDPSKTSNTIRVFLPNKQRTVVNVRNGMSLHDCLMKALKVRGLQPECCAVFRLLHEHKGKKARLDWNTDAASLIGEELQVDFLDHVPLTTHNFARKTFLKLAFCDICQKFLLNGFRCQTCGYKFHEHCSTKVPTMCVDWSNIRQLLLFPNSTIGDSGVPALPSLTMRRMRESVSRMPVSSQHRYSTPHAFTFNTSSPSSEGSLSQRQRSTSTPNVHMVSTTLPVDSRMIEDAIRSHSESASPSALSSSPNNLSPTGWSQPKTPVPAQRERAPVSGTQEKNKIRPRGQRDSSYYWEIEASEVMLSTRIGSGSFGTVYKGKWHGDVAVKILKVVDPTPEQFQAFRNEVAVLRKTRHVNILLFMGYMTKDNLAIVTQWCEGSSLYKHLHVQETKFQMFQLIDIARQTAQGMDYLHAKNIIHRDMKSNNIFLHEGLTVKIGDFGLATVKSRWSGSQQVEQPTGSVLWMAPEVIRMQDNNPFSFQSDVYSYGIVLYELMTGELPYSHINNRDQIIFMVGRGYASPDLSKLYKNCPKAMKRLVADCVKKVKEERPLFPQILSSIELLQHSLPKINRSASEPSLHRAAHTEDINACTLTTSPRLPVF", "test": "ELISA"}, "STK11 (human)": {"target": "STK11 (human) (UniProt Q15831)", "test": "ELISA"}, "TTK (human)": {"target": "TTK (human) (UniProt P33981)", "test": "ELISA"}}}
{"smiles": "CCN(CC)CCNC(=O)c1c(C)[nH]c(/C=C2\\C(=O)Nc3ccc(F)cc32)c1C", "values": [{"measurement": "inhibition", "setting": "BMX (human); compound 0.2 µM", "value": -0.5, "unit": "%"}, {"measurement": "inhibition", "setting": "BMX (human); compound 4.0 µM", "value": 22.4, "unit": "%"}, {"measurement": "inhibition", "setting": "CDC42BPA (human); compound 0.2 µM", "value": 5.5, "unit": "%"}, {"measurement": "inhibition", "setting": "CDC42BPA (human); compound 4.0 µM", "value": -26.5, "unit": "%"}, {"measurement": "inhibition", "setting": "CSF1R (human); compound 0.2 µM", "value": 67.9, "unit": "%"}, {"measurement": "inhibition", "setting": "CSF1R (human); compound 4.0 µM", "value": 98.9, "unit": "%"}, {"measurement": "inhibition", "setting": "EPHB3 (human); compound 0.2 µM", "value": -1.7, "unit": "%"}, {"measurement": "inhibition", "setting": "EPHB3 (human); compound 4.0 µM", "value": 15.3, "unit": "%"}, {"measurement": "inhibition", "setting": "HIPK2 (human); compound 0.2 µM", "value": 74.2, "unit": "%"}, {"measurement": "inhibition", "setting": "HIPK2 (human); compound 4.0 µM", "value": 99.3, "unit": "%"}, {"measurement": "inhibition", "setting": "KIT (human); compound 0.2 µM", "value": 76.7, "unit": "%"}, {"measurement": "inhibition", "setting": "KIT (human); compound 4.0 µM", "value": 100, "unit": "%"}, {"measurement": "inhibition", "setting": "MARK1 (human); compound 0.2 µM", "value": 68.8, "unit": "%"}, {"measurement": "inhibition", "setting": "MARK1 (human); compound 4.0 µM", "value": 96.8, "unit": "%"}, {"measurement": "inhibition", "setting": "MET (human); compound 0.2 µM", "value": 9, "unit": "%"}, {"measurement": "inhibition", "setting": "MET (human); compound 4.0 µM", "value": 65.3, "unit": "%"}, {"measurement": "inhibition", "setting": "YES1 (human); compound 0.2 µM", "value": 96.9, "unit": "%"}, {"measurement": "inhibition", "setting": "YES1 (human); compound 4.0 µM", "value": 101, "unit": "%"}, {"measurement": "inhibition", "setting": "BMPR1A (human); compound 0.2 µM", "value": -3.8, "unit": "%"}, {"measurement": "inhibition", "setting": "BMPR1A (human); compound 4.0 µM", "value": -7.3, "unit": "%"}, {"measurement": "inhibition", "setting": "BRAF (human); compound 0.2 µM", "value": -51, "unit": "%"}, {"measurement": "inhibition", "setting": "BRAF (human); compound 4.0 µM", "value": -60.8, "unit": "%"}, {"measurement": "inhibition", "setting": "LIMK1 (human); compound 0.2 µM", "value": -0.7, "unit": "%"}, {"measurement": "inhibition", "setting": "LIMK1 (human); compound 4.0 µM", "value": 31.7, "unit": "%"}, {"measurement": "inhibition", "setting": "MAP2K1 (human)", "value": 73.2, "unit": "%"}, {"measurement": "inhibition", "setting": "MAP2K2 (human); compound 0.2 µM", "value": 70.1, "unit": "%"}, {"measurement": "inhibition", "setting": "MAP2K2 (human); compound 4.0 µM", "value": 99, "unit": "%"}, {"measurement": "inhibition", "setting": "MAP2K3 (human)", "value": -2, "unit": "%"}, {"measurement": "inhibition", "setting": "MAP2K4 (human); compound 0.2 µM", "value": 2.8, "unit": "%"}, {"measurement": "inhibition", "setting": "MAP2K4 (human); compound 4.0 µM", "value": 51.9, "unit": "%"}, {"measurement": "inhibition", "setting": "MAP2K5 (human); compound 0.2 µM", "value": 32.7, "unit": "%"}, {"measurement": "inhibition", "setting": "MAP2K5 (human); compound 4.0 µM", "value": 91.8, "unit": "%"}, {"measurement": "inhibition", "setting": "MAP2K6 (human); compound 0.2 µM", "value": 21.1, "unit": "%"}, {"measurement": "inhibition", "setting": "MAP2K6 (human); compound 4.0 µM", "value": 87.3, "unit": "%"}, {"measurement": "inhibition", "setting": "MAP2K7 (human); compound 0.2 µM", "value": 2.2, "unit": "%"}, {"measurement": "inhibition", "setting": "MAP2K7 (human); compound 4.0 µM", "value": -3.6, "unit": "%"}, {"measurement": "inhibition", "setting": "MAP3K1 (human); compound 0.2 µM", "value": 15.9, "unit": "%"}, {"measurement": "inhibition", "setting": "MAP3K1 (human); compound 4.0 µM", "value": -29.8, "unit": "%"}, {"measurement": "inhibition", "setting": "MAP3K10 (human); compound 0.2 µM", "value": 1.2, "unit": "%"}, {"measurement": "inhibition", "setting": "MAP3K10 (human); compound 4.0 µM", "value": 11, "unit": "%"}, {"measurement": "inhibition", "setting": "MAP3K11 (human); compound 0.2 µM", "value": 30.9, "unit": "%"}, {"measurement": "inhibition", "setting": "MAP3K11 (human); compound 4.0 µM", "value": 89.4, "unit": "%"}, {"measurement": "inhibition", "setting": "MAP3K12 (human); compound 0.2 µM", "value": 59.5, "unit": "%"}, {"measurement": "inhibition", "setting": "MAP3K12 (human); compound 4.0 µM", "value": 96.5, "unit": "%"}, {"measurement": "inhibition", "setting": "MAP3K2 (human); compound 0.2 µM", "value": 52.1, "unit": "%"}, {"measurement": "inhibition", "setting": "MAP3K2 (human); compound 4.0 µM", "value": 95.7, "unit": "%"}, {"measurement": "inhibition", "setting": "MAP3K3 (human); compound 0.2 µM", "value": 56.3, "unit": "%"}, {"measurement": "inhibition", "setting": "MAP3K3 (human); compound 4.0 µM", "value": 95.5, "unit": "%"}, {"measurement": "inhibition", "setting": "MAP3K4 (human); compound 0.2 µM", "value": -4.9, "unit": "%"}, {"measurement": "inhibition", "setting": "MAP3K4 (human); compound 4.0 µM", "value": 17.5, "unit": "%"}, {"measurement": "inhibition", "setting": "MAP3K5 (human); compound 0.2 µM", "value": -0.6, "unit": "%"}, {"measurement": "inhibition", "setting": "MAP3K5 (human); compound 4.0 µM", "value": 60.6, "unit": "%"}, {"measurement": "inhibition", "setting": "MAP3K8 (human); compound 0.2 µM", "value": -5.3, "unit": "%"}, {"measurement": "inhibition", "setting": "MAP3K8 (human); compound 4.0 µM", "value": -9.2, "unit": "%"}, {"measurement": "inhibition", "setting": "MOS (human); compound 0.2 µM", "value": 2.5, "unit": "%"}, {"measurement": "inhibition", "setting": "MOS (human); compound 4.0 µM", "value": 29.9, "unit": "%"}, {"measurement": "inhibition", "setting": "PLK4 (human); compound 0.2 µM", "value": 30.3, "unit": "%"}, {"measurement": "inhibition", "setting": "PLK4 (human); compound 4.0 µM", "value": 82.7, "unit": "%"}, {"measurement": "inhibition", "setting": "RAF1 (human); compound 0.2 µM", "value": -61.4, "unit": "%"}, {"measurement": "inhibition", "setting": "RAF1 (human); compound 4.0 µM", "value": -88.1, "unit": "%"}, {"measurement": "inhibition", "setting": "STK11 (human); compound 0.2 µM", "value": 4.3, "unit": "%"}, {"measurement": "inhibition", "setting": "STK11 (human); compound 4.0 µM", "value": 28.1, "unit": "%"}, {"measurement": "inhibition", "setting": "TTK (human); compound 0.2 µM", "value": 11.5, "unit": "%"}, {"measurement": "inhibition", "setting": "TTK (human); compound 4.0 µM", "value": 89.7, "unit": "%"}]}
